Experimental data from US12383512B2, “Cannabidiol-type cannabinoid compound” (Jazz Pharmaceuticals Research UK LImited, priority 2019, dated 2025).
Where two headings read alike, the source gives them in different places.

Key:
[1] = system: seizure threshold current for tonic hind limb extensor convulsions in mice; test: Maximal electroshock seizure threshold (MEST) test in the mouse; details: for % change from vehicle (CC50) / CC50 ± SEM: MEST test
Experimental: The efficacy of 6-OH CBD was tested in a mouse model of generalised seizure, the maximal electroshock seizure threshold (MEST) test.
In the MEST test the ability of a drug to alter the seizure threshold current required to induce hind limb tonic extensor convulsions is measured according to an “up and down” method of shock titration (Kimball et al., 1957). An increase in seizure threshold is indicative of anti-convulsant effect.
The ability of a test compound to alter the stimulus intensity, expressed as current (mA), required to induce the presence of tonic hind limb extensor convulsions, is assessed in the MEST.
Naïve mice were acclimatised to the procedure room in their home cages for up to 7 days, with food and water available ad libitum.
All animals were weighed at the beginning of the study and randomly assigned to treatment groups based on a mean distribution of body weight across groups.
The first animal within a treatment group was given a shock at the expected or estimated CC50 current. For subsequent animals, the current was lowered or raised depending on the convulsions outcome from the preceding animal.
Data generated from each treatment group were used to calculate the CC50±SEM values for the treatment group.
Vehicle: (5% ethanol, 5% solutol, 90% Saline) was prepared as follows: 2 mL of ethanol, 2 mL of solutol were warmed to 60° C., in 36 mL of saline (1:1:18).
The test compound, alpha 6-OH CBD was prepared according to the method described in Example 1. 6-OH CBD was administered at 3, 10 and 30 mg/kg (i.p.) in a 1:1:18 ethanol:solutol:0.9% saline formulation.
6-OH CBD effects were also calculated as percentage change in CC50 from the vehicle control group.
Significant difference between drug-treated animals and controls were assessed according to Litchfield and Wilcoxon (1949).

[2] = system: tonic hind limb extensor seizure following corneally delivered electroshock in mice; test: Supramaximal electroshock seizure (MES) test in the mouse; type: in vivo
Experimental: The MES test is a very stringent model in which mice receive a predetermined high-level electrical stimulus of sufficient intensity to reliably produce tonic hindlimb extensor seizures in 100% of control animals. As such the MES test is a rigorous evaluation of anticonvulsant activity (Swinyard, 1985).
Animals were dosed i.p. according to treatment group. […]
In addition, a dose of 100 mg/kg CBD was given at 10 ml/kg i.p. at 120 minutes pre-treatment time to assess the effect of the drug over a longer time course.
The positive control valproate was used at 250 mg/kg (10 ml/kg i.p. 30 min pre-treatment time).
Induction of seizure is measured as an all-or-nothing effect scored as either present (+) or absent (0) for each animal.
Data was collected by an observer unaware of the treatment for each animal and was expressed as the number of +'s or 0's for each treatment group.
The percentage inhibition of relevant vehicle treated group (the protection relative to vehicle treated controls) was then generated.
Significant differences between individual treatment groups and vehicle-treated groups were assessed using 2-tailed Fisher's Exact Probability test (p<0.05 considered significant).

[3] = Plasma and brain pharmacokinetics after single intravenous or intraperitoneal administration to the mouse; type: in vivo; details: for Kp: brain/plasma, other: intravenous and intraperitoneal, all IV and IP dose groups
Excerpt: The objective of this study was to determine brain and plasma pharmacokinetic parameters of 6-OH CBD following a single intravenous or intraperitoneal administration of 6-OH CBD to the mouse; and to determine brain: plasma concentration ratios for 6-OH CBD.
Ninety-nine male mice each received a single intravenous or intraperitoneal dose of 6-OH CBD, as detailed below in Table 3.
For each formulation, 6-OH CBD was formulated at the required concentration in ethanol: Kolliphor EL (Cremophor EL): 0.9% (w/v) Saline (1:1:18, v/v/v).
Each animal received a single intravenous administration, via a tail vein, at a nominal dose volume of 2 mL/kg or a single intraperitoneal administration at a nominal dose volume of 5 mL/kg.
Following dosing, terminal blood samples were collected from each animal via cardiac puncture, and brains were excised, at each of the following time points: • Intravenous groups: 7, 15 and 30 minutes, 1, 2, 4, 8, 12 and 24 hours; • Intraperitoneal groups: 15 and 30 minutes, 1, 2, 4, 8, 12 and 24 hours.
Blood was collected into tubes containing lithium heparin anticoagulant and centrifuged to prepare plasma. Brain samples were frozen on dry ice, then weighed and stored deep frozen prior to bioanalysis. The remaining carcasses were discarded. Plasma was stabilised with an equal volume of ascorbic acid solution, then stored deep frozen prior to bioanalysis.
Stabilised plasma samples were analysed to determine the concentrations of 6-OH CBD, using qualified LC-MS/MS methods. The results of these analyses were evaluated to determine non-compartmental pharmacokinetic parameters.
The following parameters were determined: • Cmax Maximum concentration observed. • Tmax Time of maximum observed concentration. • AUC0-t Area under the concentration-time curve from hour 0 to the last quantifiable concentration, estimated by the linear trapezoidal rule. • AUC0-24 Area under the concentration-time curve from hour 0 to hour 24, estimated using the linear trapezoidal rule. • t1/2 Elimination half-life, determined as In(2)/λz. • Cl Clearance, calculated (for intravenous doses only) as Dose/AUC0-inf. • Vss Volume of distribution, based on the terminal elimination phase, calculated (for intravenous doses only) as Cl/λz. • Fabs Absolute bioavailability of the intraperitoneal dose.

[4] = 30 mg/kg i.p., pre-treatment time 60 min
[5] = 3 mg/kg i.p., pre-treatment time 30 min
[6] = 10 mg/kg i.p., pre-treatment time 15 min

CN1C(=O)CN=C(c2ccccc2)c2cc(Cl)ccc21 [Diazepam, diazepam, reference compound]
% change from vehicle (CC50) ([1]; 2.5 mg/kg i.p., pre-treatment time 30 min): 103%

C=C(C)[C@@H]1CC(O)C(C)=C[C@H]1c1c(O)cc(CCCCC)cc1O (stereo partly drawn) [6-OH CBD, Alpha 6-hydroxy cannabidiol]
% change from vehicle ([2]; 3 mg/kg i.p., pre-treatment time 60 min): 0% | seizure outcome in words ([2]; 3 mg/kg i.p., text says 120 minutes before the test): ineffective | % change from vehicle [2, 4]: 100% | seizure outcome in words ([2]; 30 mg/kg i.p., text says 120 minutes before the test): enabled all mice within the group to withstand seizures | seizure outcome in words ([2]; 100 mg/kg given 120 minutes before): statistically significant reduction of seizures | % change from vehicle ([2]; 100 mg/kg i.p., pre-treatment time 60 min): 100% | % change from vehicle ([2]; 100 mg/kg i.p., pre-treatment time 120 min): 100% | seizure outcome in words ([2]; 100 mg/kg i.p., text says 120 minutes before the test): enabled all mice within the group to withstand seizures | % change from vehicle ([2]; 200 mg/kg i.p., pre-treatment time 60 min): 100% | seizure outcome in words ([2]; 200 mg/kg i.p., text says 120 minutes before the test): enabled all mice within the group to withstand seizures | increase in brain AUC0-24 for a 10-fold increase in dose level ([3]; brain, IP 3 to 30 mg/kg): 32.6 fold | increase in brain Cmax for a 10-fold increase in dose level ([3]; brain, IP 3 to 30 mg/kg): 15.8 fold | Cmax ([3]; male, brain, IP 3 mg/kg): 851 ng/mL | Cmax ([3]; male, brain, IP 10 mg/kg): 3680 ng/mL | Cmax ([3]; male, brain, IP 30 mg/kg): 13500 ng/mL | Cmax ([3]; male, brain, IV 1 mg/kg): 1580 ng/mL | AUC(0-t) ([3]; male, brain, ip, 3 mg/kg, brain, IP 3 mg/kg, read-out: AUC0-24): 768 ng·h/mL | AUC(0-t) ([3]; male, brain, ip, 3 mg/kg, brain, IP 3 mg/kg, read-out: AUC0-t): 756 ng·h/mL | Tmax ([3]; male, brain, ip, 3 mg/kg, brain, IP 3 mg/kg, read-out: Tmax (converted)): 30 min | half-life ([3]; male, brain, ip, 3 mg/kg, brain, IP 3 mg/kg, read-out: t1/2 (converted)): 34.1 min | AUC(0-t) ([3]; male, brain, ip, 10 mg/kg, brain, IP 10 mg/kg, read-out: AUC0-24): 3940 ng·h/mL | AUC(0-t) ([3]; male, brain, ip, 10 mg/kg, brain, IP 10 mg/kg, read-out: AUC0-t): 3750 ng·h/mL | Tmax ([3]; male, brain, ip, 10 mg/kg, brain, IP 10 mg/kg, read-out: Tmax (converted)): 15 min | half-life ([3]; male, brain, ip, 10 mg/kg, brain, IP 10 mg/kg, read-out: t1/2 (converted)): 42.4 min | AUC(0-t) ([3]; male, brain, ip, 30 mg/kg, brain, IP 30 mg/kg, read-out: AUC0-24): 25000 ng·h/mL | AUC(0-t) ([3]; male, brain, ip, 30 mg/kg, brain, IP 30 mg/kg, read-out: AUC0-t): 25000 ng·h/mL | Tmax ([3]; male, brain, ip, 30 mg/kg, brain, IP 30 mg/kg, read-out: Tmax (converted)): 60 min | half-life ([3]; male, brain, ip, 30 mg/kg, brain, IP 30 mg/kg, read-out: t1/2 (converted)): 55.1 min | half-life ([3]; male, brain, ip, brain, IP administration 3-30 mg/kg, read-out: t1/2 range): 34.1 to 55.1 min | Tmax ([3]; male, brain, ip, brain, after IP dosing (3-30 mg/kg), read-out: Tmax range): 15 to 60 min | AUC(0-t) ([3]; male, brain, iv, 1 mg/kg, brain, IV 1 mg/kg, read-out: AUC0-24): 690 ng·h/mL | AUC(0-t) ([3]; male, brain, iv, 1 mg/kg, brain, IV 1 mg/kg, read-out: AUC0-t): 679 ng·h/mL | Tmax ([3]; male, brain, iv, 1 mg/kg, brain, IV 1 mg/kg, read-out: Tmax (converted)): 7.02 min | half-life ([3]; male, brain, iv, 1 mg/kg, brain, IV 1 mg/kg, read-out: t1/2 (converted)): 18.7 min | Kp ([3]; male, read-out: Brain: plasma ratio for AUC0-24, range): 1.41 to 2.01 | Kp ([3]; male, read-out: Brain: plasma ratio for Cmax, range): 1.23 to 2.03 | Cmax ([3]; male, plasma, IP 3 mg/kg): 658 ng/mL | Cmax ([3]; male, plasma, IP 10 mg/kg): 2550 ng/mL | Cmax ([3]; male, plasma, IP 30 mg/kg): 11000 ng/mL | Cmax ([3]; male, plasma, IV 1 mg/kg): 775 ng/mL | clearance ([3]; male, plasma, IV 1 mg/kg): 48.7 mL/min/kg | Vd ([3]; male, plasma, IV 1 mg/kg, read-out: Vss): 1.9 L/kg | AUC(0-t) ([3]; male, plasma, ip, 3 mg/kg, plasma, IP 3 mg/kg, read-out: AUC0-24): 535 ng·h/mL | AUC(0-t) ([3]; male, plasma, ip, 3 mg/kg, plasma, IP 3 mg/kg, read-out: AUC0-t): 533 ng·h/mL | Tmax ([3]; male, plasma, ip, 3 mg/kg, plasma, IP 3 mg/kg, read-out: Tmax (converted)): 15 min | half-life ([3]; male, plasma, ip, 3 mg/kg, plasma, IP 3 mg/kg, read-out: t1/2 (converted)): 59.6 min | AUC(0-t) ([3]; male, plasma, ip, 10 mg/kg, plasma, IP 10 mg/kg, read-out: AUC0-24): 2600 ng·h/mL | AUC(0-t) ([3]; male, plasma, ip, 10 mg/kg, plasma, IP 10 mg/kg, read-out: AUC0-t): 2590 ng·h/mL | Tmax ([3]; male, plasma, ip, 10 mg/kg, plasma, IP 10 mg/kg, read-out: Tmax (converted)): 15 min | half-life ([3]; male, plasma, ip, 10 mg/kg, plasma, IP 10 mg/kg, read-out: t1/2 (converted)): 64.8 min | AUC(0-t) ([3]; male, plasma, ip, 30 mg/kg, plasma, IP 30 mg/kg, read-out: AUC0-24): 17700 ng·h/mL | AUC(0-t) ([3]; male, plasma, ip, 30 mg/kg, plasma, IP 30 mg/kg, read-out: AUC0-t): 17700 ng·h/mL | Tmax ([3]; male, plasma, ip, 30 mg/kg, plasma, IP 30 mg/kg, read-out: Tmax (converted)): 15 min | half-life ([3]; male, plasma, ip, 30 mg/kg, plasma, IP 30 mg/kg, read-out: t1/2 (converted)): 57.5 min | Tmax ([3]; male, plasma, ip, 30 mg/kg, plasma, IP 3, 10 or 30 mg/kg (each dose level), read-out: Tmax (converted)): 15 min | half-life ([3]; male, plasma, ip, 30 mg/kg, plasma, IP 3, 10 or 30 mg/kg, read-out: t1/2 range across dose levels): 59.6 to 64.8 min | AUC(0-t) ([3]; male, plasma, iv, 1 mg/kg, plasma, IV 1 mg/kg, read-out: AUC0-24): 343 ng·h/mL | AUC(0-t) ([3]; male, plasma, iv, 1 mg/kg, plasma, IV 1 mg/kg, read-out: AUC0-t): 342 ng·h/mL | Tmax ([3]; male, plasma, iv, 1 mg/kg, plasma, IV 1 mg/kg, read-out: Tmax (converted)): 7.02 min | half-life ([3]; male, plasma, iv, 1 mg/kg, plasma, IV 1 mg/kg, read-out: t1/2 (converted)): 27.1 min | Fabs ([3]; plasma, IP 3 mg/kg): 52.1% | Fabs ([3]; plasma, IP 10 mg/kg): 75.8% | Fabs ([3]; plasma, IP 30 mg/kg): 173% | increase in plasma AUC0-24 for a 10-fold increase in dose level ([3]; plasma, IP 3 to 30 mg/kg): 33.2 fold | increase in plasma Cmax for a 10-fold increase in dose level ([3]; plasma, IP 3 to 30 mg/kg): 16.7 fold | effect on MEST in words ([1]; 3, 10 and 30 mg/kg i.p.): dose-related increase in MEST | % change from vehicle (CC50) [1, 5]: 25% | CC50 ± SEM [1, 5]: 30.0 ± 1.1 mA | % change from vehicle (CC50) [1, 6]: 135% | CC50 ± SEM [1, 6]: 56.5 ± 2.1 mA | % change from vehicle (CC50) [1, 4]: 327% | CC50 ± SEM [1, 4]: 102.5 ± 2.2 mA
